{"source": "patent US8524978B2", "about": "“Composition for production of plant body having improved sugar content, and use thereof” (Japan Science and Technology Agency, priority 2007, dated 2013)", "assay_type_in_all_cases": "in vivo", "key": {"Lycopersicum esculentum [1]": {"system": "Lycopersicum esculentum", "assay": "Cultivation of Lycopersicum esculentum with GSSG or GSH, sensory tests of fruit (Example 1)", "details": "50 mL of 0.5 mM at root twice a week, 60 days", "source_text": "In the present example, Lycopersicum esculentum was cultivated with use of GSSG or GSH. Details of cultivation are described below.\nFirst, Lycopersicum esculentum seedlings (TAKII & CO. Ltd., product name: Osama tomato reika) were transplanted into a hydroponic culture pot ( 1/2000 a). In the hidroponic culture pot, 6 L of vermiculite (ASAHI INDUSTRIES Co., LTD.), 3 L of KUREHA horticultural soil (KUREHA CORPORATION), and 3 L of vermiculite were layered as a lower, middle, and upper layers, respectively.\nDuring the cultivation of Lycopersicum esculentum, 50 mL of 0.5 mM GSSG or 0.5 mM GSH (adjusted with 0.1N NaOH to be at pH 7) was applied twice a week at a root per plant. The Lycopersicum esculentum plants were grown for 60 days without being subjected to bud removal. Last 10 days was used as a harvest period for harvesting fruit of the plants. For comparison, a Lycopersicum esculentum plant was grown under the same condition, except that GSSG and GSH were not applied. To the plants of any condition, 3 g of Kumiai phosphorate ammonium nitrate potassium S-604 (Chisso Asahi Fertilizer Co., Ltd.) was applied as an additional fertilizer once in 2 weeks.\n(§1) Next, the fruit harvested was subjected to sensory tests of sugar content and the like. As a result, it was determined that fruit of the plant applied with GSSG increased in sugar content compared to that of the plant not applied with GSSG or GSH. Further, it was determined that the plant applied with GSSG increased in number of fruit. It was determined that fruit of the plant applied with GSH increased in sugar content and acidity."}, "Lycopersicum esculentum [2]": {"system": "Lycopersicum esculentum", "assay": "Sugar content determination of Lycopersicum esculentum fruit with refractometer (Example 2)", "details": "0.5 mM applied as in Example 1; compared to Cont and Cont2 Sunny conditions; ANOVA 5%", "source_text": "Cultivated were Lycopersicum esculentum plants to which GSSG or GSH was applied by the method described in Example 1. Then, obtained fruit of the plants was subjected to sugar content determination using “Pocket” Refractometer APAL-1 (ATAGO CO., LTD.).\nFor comparison, Lycopersicum esculentum plants were cultivated under two types of conditions (referred to as “Cont” and “Cont2 Sunny”). In the Cont condition, Lycopersicum esculentum plants were cultivated by the same method as in Example 1, except that GSSG and GSH were not applied. In the Cont2 Sunny condition, a Lycopersicum esculentum plant was not applied with GSSG or GSH and was independently cultivated at a site sufficiently irradiated with sunlight so that illuminance on the Lycopersicum esculentum plant becomes 100%. In the Cont condition and a condition in which GSSG or GSH was applied, the plants were planted at intervals of 40 cm to 50 cm. In this case, a plant may intercept light irradiating another plant. Therefore, illuminance on such plants becomes less than 100%.\nIn the condition in which GSSG was applied, the condition in which GSH is applied, and the Cont condition, three Lycopersicum esculentum plants were cultivated, respectively. In the Cont2 Sunny condition, one Lycopersicum esculentum plant was cultivated. […]"}, "[3]": {"system": "Vitis labrusca (Delaware)", "assay": "Cultivation of Vitis labrusca with GSSG or GSH, sensory test (Example 5)", "description": "In the present invention, Vitis labrusca was cultivated. Specifically, immediately after flowering of a Vitis labrusca (Delaware) plant, a mixed solution of 1 mM gibberellin (GA3) and 1 mM of an agent was applied to anthotaxy of the plant. The agent was GSSG or GSH. Then, the plant was coated with the agent and thereafter produced fruit was harvested. For comparison, a Vitis labrusca plant was cultivated in the same way, except that GA3, but not GSSG or GSH, was applied, and fruit thereof was harvested and subjected to a sensory test described below.\nThe fruit harvested was subjected to a sensory test of sugar content. As a result, it was determined that fruit of the plant applied with GA3 and GSSG or GSH increased in sugar content compared to that of the plant applied with only GA3. Further, it was determined that the plant applied with GSSG and GA3 increased in size of fruit."}, "Lycopersicum esculentum [4]": {"system": "Lycopersicum esculentum", "assay": "Change of sugar content over time after one application of GSH or GSSG (Example 6)", "details": "50 mL of 0.5 mM once at root 90 days after sowing; fruit harvested day 0 to day 4", "experimental": "In the present example, a sugar content of a plant was determined after a substance for regulating an oxidation-reduction state of a cell was applied to the plant. The substance for regulating an oxidation-reduction state of a cell was GSH or GSSG. As in the case of Example 1, Lycopersicum esculentum was used as the plant. Specifically, the following operations were carried out.\nNinety days after sowing of Lycopersicum esculentum seeds, Lycopersicum esculentum plants were subjected to a GSH or GSSG treatment. The Lycopersicum esculentum plants were cultivated by the same method as in Example 1 except for the GSH or GSSG treatment. The GSH or GSSG treatment was such that 50 mL of 0.5 mM GSSH or 0.5 mM GSH (adjusted with 0.1N NaOH to be at pH 7) was applied once at a root per plant. Then, fruit of the plants was harvested every day from the 0th day until the 4th day after application of GSH or GSSG, and subjected to sugar content determination. […] FIG. 3 is a graph showing a determination result of relation between sugar content and the number of days from an application day of GSH or GSSG. In FIG. 3, the vertical scale indicates sugar content (Brix, unit: %) and the horizontal scale indicates days from the application day. In FIG. 3, lines labeled with circles, triangles, and squares show results of the plants applied with GSH, GSSG, and no GSH and no GSSG, respectively. […]"}, "Fragaria ananassa [5]": {"system": "Fragaria ananassa", "assay": "Cultivation of Fragaria ananassa with GSSG or GSH, sensory tests of fruit (Example 10)", "details": "50 mL of 0.2 or 0.5 mM GSSG, or 0.4 or 0.5 mM GSH, once a week at root, 63 days", "description": "In the present example, Fragaria ananassa was cultivated with use of GSSG or GSH. Details of cultivation are described below.\n(§2) First, Fragaria ananassa seedlings were transplanted to a planter. In the planter, 6 L of vermiculite (ASAHI INDUSTRIES Co., LTD.), 3 L of KUREHA horticultural soil (KUREHA CORPORATION), and 3 L of vermiculite were layered as a lower, middle, and upper layers, respectively.\n(§3) During cultivation of Fragaria ananassa plants, 50 mL of 0.2 mM or 0.5 mM GSSG or 50 mL of 0.4 mM or 0.5 mM GSH (adjusted with 0.1N NaOH to be at pH7) was applied once a week at a root per plant. The plants were grown for 63 days without being subjected to bud removal. For comparison, a Fragaria ananassa plant was grown under the same condition, except that GSSG and GSH were not applied. To the plants of any condition, 3 g of Kumiai phosphorate ammonium nitrate potassium S-604 (Chisso Asahi Fertilizer Co., Ltd.) was applied as an additional fertilizer once in 2 weeks.\nas §1, with “sugar content and decreased in acidity compared to” for “sugar content compared to”, “It was also determined that” for “It was determined that”"}, "Fragaria ananassa [6]": {"system": "Fragaria ananassa", "assay": "Sugar content determination of Fragaria ananassa fruit with refractometer (Example 10)", "details": "50 mL of 0.2 or 0.5 mM GSSG, or 0.4 or 0.5 mM GSH, once a week at root; significance level 5%", "description": "as §2, §3\nFurther, the fruit obtained was subjected to sugar content determination using “Pocket” Refractometer APAL-1 (ATAGO CO., LTD.). For comparison, fruit not applied with GSSG or GSH was also subjected to the sugar content determination. […] In FIG. 7, the vertical scale indicates sugar content (Brix, unit: %)."}}, "data": [{"compound": "N[C@@H](CCC(=O)N[C@@H](CS)C(=O)NCC(=O)O)C(=O)O", "note": "[GSH, reduced glutathione]", "values": [{"measurement": "acidity of fruit (sensory test)", "setting": "Lycopersicum esculentum [1]", "result": "increased"}, {"measurement": "sugar content of fruit (sensory test)", "setting": "Lycopersicum esculentum [1]; compared to plant not applied with GSSG or GSH", "result": "increased"}, {"measurement": "sugar content of fruit (Brix)", "setting": "Lycopersicum esculentum [2]", "result": "significantly increased"}, {"measurement": "sugar content of fruit (sensory test)", "setting": "[3]; 1 mM agent mixed with 1 mM gibberellin (GA3), applied to anthotaxy, compared to plant applied with only GA3", "result": "increased"}, {"measurement": "sugar content", "setting": "[3]; applied without GA3", "result": "increased"}, {"measurement": "sugar content of fruit (Brix) after application", "setting": "Lycopersicum esculentum [4]", "result": "rapidly improve"}, {"measurement": "acidity of fruit (sensory test)", "setting": "Fragaria ananassa [5]", "result": "increased"}, {"measurement": "sugar content of fruit (sensory test)", "setting": "Fragaria ananassa [5]; vs plant not applied", "result": "increased"}, {"measurement": "sugar content of fruit (Brix), ANOVA versus fruit not applied", "setting": "Fragaria ananassa [6]", "result": "significant difference"}]}]}
